Experimental findings from ChEMBL document CHEMBL4177652, “Synthesis of 14-deoxy-11,12-didehydroandrographolide analogues as potential cytotoxic agents for cholangiocarcinoma” (Bioorg Med Chem Lett, 2017) are described below.

For series [1], the system named is P388. As to the kind of experiment: Growth inhibition of mouse P388 cells after 72 hrs by SRB assay. The format is functional. The following applies: P388, 72 h, read-out: ED50 (the source's name). A general note: The SRB assay estimates cell density from bound dye.
The subject of series [2] is KB. In words: Growth inhibition of human KB cells after 72 hrs by SRB assay. The format is functional. The following applies: read-out: ED50 (the source's name).
In series [3] the test system is HT-29. As to the kind of experiment: Growth inhibition of human HT-29 cells after 72 hrs by SRB assay. Format: functional. The following applies: HT-29, 72 h, read-out: ED50 (the source's name).
Series [4] deals with MCF7. As to the kind of experiment: Growth inhibition of human MCF7 cells after 72 hrs by SRB assay. Format: functional. The following applies: MCF7, 72 h, read-out: ED50 (the source's name).
The test system of series [5] is A549. As to the kind of experiment: Growth inhibition of human A549 cells after 72 hrs by SRB assay. Format: functional. The following applies: A549, 72 h, read-out: ED50 (the source's name).
Series [6] in a line: Growth inhibition of rat ASK cells after 72 hrs by SRB assay. The following applies: read-out: ED50 (the source's name). The format is functional.
Series [7] in a line: Growth inhibition of human KKU-M213 cells after 72 hrs by SRB assay. Format: functional. As to conditions: KKU-M213, 72 h, read-out: ED50 (the source's name).
Series [8] relates to HuCC-A1. As to the kind of experiment: Growth inhibition of human HuCCa1 cells after 72 hrs by SRB assay. Format: functional. The following applies: HuCC-A1, 72 h, read-out: ED50 (the source's name).
Series [9] is described as follows: Growth inhibition of human KKU100 cells after 72 hrs by SRB assay. As to conditions: KKU100, 72 h, read-out: ED50 (the source's name). The format is functional.
The nature of series [10]: Growth inhibition of human HEK293 cells after 72 hrs by SRB assay. The format is cell-based. As to conditions: read-out: ED50.

As for `C=C1CC[C@@H]2[C@](C)(COC(c3ccccc3)(c3ccccc3)c3ccccc3)[C@H](OC(C)=O)CC[C@@]2(C)[C@@H]1/C=C/C1=CCOC1=O`, the EC50 in series [1] stood at 12.9 µM; in series [2], 6.36 µM; in [3], 21.9 µM; in series [4] it was 9.12 µM; in series [5], 12 µM; in series [6], 39.9 µM. The EC50 in series [7] is 9.98 µM; in series [8] it was 38.6 µM; in [9] it was more than 50 µM. The GI50 at 72 h in series [10] worked out at 7.02 µM.

`CC(=O)O[C@@H]1CC[C@]2(C)[C@H](CC[C@@]3(CO3)[C@H]2/C=C/C2=CCOC2=O)[C@]1(C)CO[Si](c1ccccc1)(c1ccccc1)C(C)(C)C`: the EC50 in series [1] turned out to be 5.25 µM; in series [2], 5.19 µM; in series [3] it was 5.22 µM; in series [4], 6.38 µM; in series [5], 8.31 µM; in series [6] it was 8.96 µM. Also, the EC50 stood at 5.13 µM in series [7], 8.08 µM in series [8] and 4.5 µM in series [9]. In series [10], the GI50 at 72 h amounted to 6.01 µM.

`C[C@]1(COC(c2ccccc2)(c2ccccc2)c2ccccc2)[C@H]2CC[C@@]3(CO3)[C@@H](/C=C/C3=CCOC3=O)[C@]2(C)CC[C@H]1O`: the EC50 is 3.33 µM in [1]; 4.92 µM in [2]; 6.21 µM in [3]; 5.38 µM in series [4]; 5.88 µM in [5]; 6.47 µM in series [6]. The figures for the EC50 in series [7], in series [8] and in series [9] were 4.68 µM, 7.81 µM and 28.8 µM, respectively. For the same molecule, the GI50 at 72 h in [10] turned out to be 5.39 µM.

On to `C=C1CC[C@@H]2[C@](C)(CO[Si](C(C)C)(C(C)C)C(C)C)[C@H](O)CC[C@@]2(C)[C@@H]1/C=C/C1=CCOC1=O`, for which the EC50 in series [1] was determined as 5.96 µM; in series [2], 4.7 µM; in series [3], 7.14 µM; in series [4] it was 5.46 µM; in series [5], 7.95 µM; in series [6], 7.35 µM. Further, the EC50 in series [7] is 7.06 µM; in series [8], 6.72 µM; in series [9], 18.2 µM. In addition, the GI50 at 72 h in [10] stood at 5.28 µM.

In the case of `CC(=O)O[C@@H]1CC[C@]2(C)[C@H](CC[C@@]3(CO3)[C@H]2/C=C/C2=CCOC2=O)[C@]1(C)CO[Si](C(C)C)(C(C)C)C(C)C`, the EC50 was 7.84 µM in [1]; 8.48 µM in series [2]; 7.4 µM in series [3]; 7.84 µM in [4]; 8.65 µM in series [5]; 15.7 µM in series [6]. Moreover, the EC50 in [7] is 7.22 µM; in series [8], 8.92 µM; in [9], 17.5 µM. Further, the GI50 at 72 h in [10] came out at 7.39 µM.
